According to ChEMBL document CHEMBL4420079, “Methylamine derivatives as lysysl oxidase inhibitors for the treatment of cancer” (2017):
Active and inactive are the calls of the source. No cut-off for these calls is given here.

How the values were obtained:
[1] = Inhibition of pig skin LOX incubated for 45 mins by Amplex red dye based and HRP coupled assay; design: species or system Sus scrofa
[2] = molecular target: T1, Protein-lysine 6-oxidase (Homo sapiens) (UniProt P28300); conditions: MDA-MB-231, 1 mM
T1 sequence (whole entry): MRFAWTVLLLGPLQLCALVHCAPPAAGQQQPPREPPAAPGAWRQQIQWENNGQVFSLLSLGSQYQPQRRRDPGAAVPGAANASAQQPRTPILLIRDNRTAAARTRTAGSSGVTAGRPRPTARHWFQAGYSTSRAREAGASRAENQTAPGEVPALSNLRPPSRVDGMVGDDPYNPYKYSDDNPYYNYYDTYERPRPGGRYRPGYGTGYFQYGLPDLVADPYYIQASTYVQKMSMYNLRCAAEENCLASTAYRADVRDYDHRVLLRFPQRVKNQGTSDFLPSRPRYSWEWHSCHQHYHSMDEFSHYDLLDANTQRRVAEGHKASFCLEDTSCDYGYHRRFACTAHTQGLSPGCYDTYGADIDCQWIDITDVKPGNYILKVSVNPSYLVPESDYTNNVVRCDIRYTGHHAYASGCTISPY

| IC50 [1] | Compound | inhibition [2] |
| --- | --- | --- |
| 1400 nM | NCc1ncc(S(=O)(=O)c2ccc3ccccc3c2)s1 |  |
|  | N#CCCN | Active |
